From article PMC10959927, “Platinum iodido drugs show potential anti-tumor activity, affecting cancer cell metabolism and inducing ROS and senescence in gastrointestinal cancer cells” (Communications Biology, 2024)
Values joined by “and” are separate entries in the source; they are usually repeats but may differ in a detail not shown here. Equal values may be shown once. Read-outs that look alike come from different tables or passages of the source.

Legend:
AGS cells [1] = test: SA-β-Gal histochemical staining; format: cell-based, human; conditions: Fig. S4A
Method: SA-β-Gal activity was measured following two different approaches. (i) AGS, MKN45 and PANC1 cells (5 × 10^4) were seeded in 24-multiwell dishes and incubated overnight. […] For flow cytometry cell senescence detection, cells were tripsinized, fixed for 15 min with PFA 4% and stained with the CellEvent Senescense Green Flow Cytometry Assay Kit (C10840, Invitrogen) according to manufacturer’s instructions. CellEvent Senescense Green Probe was used at a 1:500 dilution and fluorescence was detected using the filter (Ex488nm/Em530/30) BL1 with a 4-laser Attune NxT Acoustic Cytometer (Thermo Fisher Scientific). […] After 3 h, the treatments were removed, new supplemented medium was added, and cells were incubated for an additional 24 h. Finally, SA-β-Gal staining was performed using the Senescence Cells Histochemical Staining Kit (CS0030-1KT) according to the manufacturer’s instructions.

[2] = test system: telomeres, 36B4, MT-COX1, MT-CYB DNA of MKN45 cells; test: Oxidized bases (FPG-sensitive lesions) in genome regions by qPCR; format: cell-based, human; conditions: MKN45, IC50 concentration 24 h, normalized to control, single replicates
Source text: (§1) Total cellular DNA from MKN45 and PANC1 cells was extracted using an NZY Tissue gDNA Isolation Kit (Nzytech, MB13503) following the manufacturer’s instructions and quantified using a Nanodrop (Nanodrop Spectrophotometer ND-1000, ThermoFisher Scientific, Wilmington, DE, USA). We adapted the procedure described by O’Callaghan et al.[76] to measure oxidative DNA damage at telomeres, 36B4 genomic region and at mitochondrial DNA (MT-COX1, MT-CYB). This is a qPCR method based on differences in PCR kinetics between DNA template digested by Formamidopyrimidine DNA Glycosylase (FPG, Cat no. M0240S) and undigested DNA. This enzyme recognizes and cuts 8-oxoguanine, producing apurinic sites that are converted into single-strand breaks by its apurinic sites lyase activity. These single-strand breaks inhibit the PCR, thus, the ΔCT after digesting DNA by […] (Ct digested–Ct undigested) is proportional to the oxidative damage in the amplified region. DNA was incubated with 8 Units of FPG during 3 h in FPG buffer (NEB1, M0240S). The reaction was stopped by incubation at 95 °C for 5 min. qPCR analysis was performed on 40 ng of digested or undigested genomic DNA. Each qPCR was performed in triplicate including no-template controls in a StepOne Real‐time PCR System (Applied Biosystems, 4376357). Target genes (Table 3) were amplified using SYBR Green (Applied Biosystems, MB345). Thermal cycling of the qPCR reaction was initiated with a denaturation step at 95 °C for 10 min. The process consisted of 40 cycles (denaturation at 95 °C for 15 sec, annealing at 60 °C for 30 sec, and elongation at 72 °C for 30 sec). This experiment was repeated three independent times with 10–12 replicates.

[3] = test system: telomeres, 36B4, MT-COX1, MT-CYB DNA of PANC1 cells; test: as above; format: cell-based, human; conditions: PANC1, IC50 concentration 24 h, normalized to control, single replicates
Source text: as §1

AGS cells [4] = test: RT-qPCR gene expression (CDKN1A, IL6, MMP1, MAP2K3, SOD1, SOD2, CAT, MKI67, TNFRSF10D); format: cell-based, human
Method: (§2) Total cellular RNA was extracted using Tri-Reagent (Life Technologies), following the manufacturer’s instructions. One μg of total RNA was primed with random primers and cDNA synthesized with an M-MLV reverse transcriptase following the manufacturer’s instructions (Promega). Target genes were amplified using a SYBR Green polymerase chain reaction assay, working with the specific primer sets listed in Table 4.
(§3) Thermal cycling of the qPCR reaction was initiated with a denaturation step at 95 °C for 10 min. The process consisted of 40 cycles (denaturation at 95 °C for 15 sec, annealing at 60 °C for 30 sec, and elongation at 75 °C for 30 sec). PCR amplifications were carried out in a StepOne Real‐time PCR System (Applied Biosystems, 4376357). Relative mRNA levels were calculated by the delta-Ct method (2-ΔΔCt), where each 1-Ct difference equals a two-fold change in transcript abundance, using GAPDH as an endogenous gene reference. ΔΔCT represents the difference between the mean ΔCT value of the cells tested and the mean ΔCT value of the calibrator, both calculated for the same PCR run.

PANC1 cells [5] = test: as above; format: cell-based, human
Method: as §2, §3

MKN45 cells [6] = test: as above; format: cell-based, human
Method: as §2, §3

AGS cells [7] = test: Cell viability, crystal violet staining; conditions: for Cell Viability without NAC: AGS cells, Fig. S6A; for IC50: read-out: IC50 concentration (± SD) at 48 h, 48 h
Method: (§4) Cell viability was assessed using a crystal violet-based staining method. […] The cells (2 × 10^5) were seeded in 24-multiwell dishes in 0.5 mL of complete medium and incubated overnight. […] After 48 h, cells were fixed with 1% glutaraldehyde (20–30 min), washed with distilled water, and stained with 0.1% crystal violet. […] IC50 were calculated by using GraphPad Prism (version 8.0). Nonlinear regression was used to fit the data to the log (inhibitor) versus response (variable slope).

PANC1 cells [8] = test: Cell viability, crystal violet staining; conditions: for Cell Viability without NAC: PANC1 cells, Fig. S6A; for IC50: read-out: IC50 concentration (± SD) at 48 h, 48 h
Method: as §4

MKN45 cells [9] = test: Cell viability, crystal violet staining; conditions: for Cell Viability without NAC: MKN45 cells, Fig. S6A; for IC50: read-out: IC50 concentration (± SD) at 48 h, 48 h
Method: as §4

[10] = PANC1, Fig. 3C, replicate values
[11] = MKN45, Fig. 3C, replicate values

## CC(C)[NH][Pt@SP1]([I])([I])[NH]C(C)C [I6, cis-[PtI2(isopropylamine)2]]
AGS cells [1]
  Fold change % Senescence: 49.02% and 67.7% and 53.18%
[2]; FPG-digested vs undigested
  TEL (Fold change - ΔCt TEL), oxidative DNA damage: 0.7872 and 0.7903 and 0.6876 and 0.7373 and 0.6171 and 1.142 and 1.077 and 1.074 and 1.391
[2]
  36B4 (Fold change - ΔCt 36B4), oxidative DNA damage: 0.9227 and 0.9306 and 1.569 and 1.862 and 2.074 and 2.392 and 1.861 and 2.101 and 1.707 and 2.034
  MT-COX1 (Fold change - ΔCt MT-COX1), oxidative DNA damage: 1.321 and 1.289 and 1.307 and 1.545 and 0.7235 and 0.8203 and 2.299 and 2.595 and 3.243 and 4.134
  MT-CYB (Fold change - ΔCt MT-CYB), oxidative DNA damage: 1.235 and 1.231 and 1.262 and 1.5934 and 1.492 and 1.356 and 1.4814 and 1.489 and 0.5469 and 0.6464 and 1.605
[3]; FPG-digested vs undigested
  TEL (Fold change - ΔCt TEL), oxidative DNA damage: 5.579 and 4.9877 and 4.471 and 0.2398 and 0.9572 and 1.407 and 2.172 and 1.711 and 1.673 and 1.777
[3]
  36B4 (Fold change - ΔCt 36B4), oxidative DNA damage: 1.888 and 2.028 and 1.034 and 1.832 and 3.4044 and 3.392 and 3.578 and 2.951 and 2.103 and 2.482
  MT-COX1 (Fold change - ΔCt MT-COX1), oxidative DNA damage: 1.444 and 1.678 and 1.516 and 1.609 and 1.88 and 0.5367 and 1.4145 and 1.209 and 1.263 and 1.421
  MT-CYB (Fold change - ΔCt MT-CYB), oxidative DNA damage: 1.356 and 1.264 and 1.349 and 1.774 and 2.04 and 1.998 and 2.191 and 4.689 and 8.16 and 4.981 and 6.184
AGS cells [4]; Fig. 3C, replicate values
  CDKN1A, Fold change vs GAPDH: 7.239 fold change and 5.782 fold change and 9.064 fold change
  IL-6, Fold change vs GAPDH: 1.072 fold change and 0.8542 fold change and 0.2227 fold change
  MMP-1, Fold change vs GAPDH: 528.599 fold change and 466.082 fold change and 599.501 fold change
AGS cells [4]; Fig. 4B, replicate values
  Fold change MAP2K3 vs GAPDH: 14.3277 fold change and 13.4406 fold change and 15.2735 fold change
AGS cells [4]; Fig. S4C
  MKI67 Fold change vs GAPDH: 0.8471 fold change and 0.6697 fold change and 1.072 fold change
  TNFRSF10D Fold change vs GAPDH: 16.1948 fold change and 12.3693 fold change and 21.2034 fold change
AGS cells [4]; mRNA vs Control = 1
  CAT (Fold change vs GAPDH): 0.4383 Fold change and 0.3857 Fold change and 0.4982 Fold change
  SOD1 (Fold change vs GAPDH): 1.81 Fold change and 1.501 Fold change and 2.182 Fold change
  SOD2 (Fold change vs GAPDH): 0.6611 Fold change and 0.5938 Fold change and 0.736 Fold change
PANC1 cells [5]; PANC1, Fig. S4C
  MKI67 Fold change vs GAPDH: 1.187 fold change and 1.0074 fold change and 1.3984 fold change
  TNFRSF10D Fold change vs GAPDH: 1.308 fold change and 1.177 fold change and 1.453 fold change
PANC1 cells [5]; PANC1, mRNA vs Control = 1
  CAT (Fold change vs GAPDH): 1.283 Fold change and 1.157 Fold change and 1.422 Fold change
  SOD1 (Fold change vs GAPDH): 1.212 Fold change and 1.267 Fold change and 1.413 Fold change
  SOD2 (Fold change vs GAPDH): 0.7792 Fold change and 0.7372 Fold change and 0.8236 Fold change
PANC1 cells [5]; [10]
  CDKN1A, Fold change vs GAPDH: 0.7609 fold change and 0.6464 fold change and 0.8957 fold change
  IL-6, Fold change vs GAPDH: 2.029 fold change and 0.6879 fold change and 5.985 fold change
  MMP-1, Fold change vs GAPDH: 1.768 fold change and 1.572 fold change and 2.113 fold change
PANC1 cells [5]; PANC1, Fig. 4B, replicate values
  Fold change MAP2K3 vs GAPDH: 1.382 fold change and 1.186 fold change and 1.609 fold change
MKN45 cells [6]; MKN45, Fig. S4C
  MKI67 Fold change vs GAPDH: 0.2699 fold change and 0.2509 fold change and 0.2902 fold change
  TNFRSF10D Fold change vs GAPDH: 0.3106 fold change and 0.2548 fold change and 0.3786 fold change
MKN45 cells [6]; MKN45, mRNA vs Control = 1
  CAT (Fold change vs GAPDH): 1.125 Fold change and 0.8671 Fold change and 1.459 Fold change
  SOD1 (Fold change vs GAPDH): 1.504 Fold change and 1.381 Fold change and 1.638 Fold change
  SOD2 (Fold change vs GAPDH): 2.631 Fold change and 2.276 Fold change and 3.26 Fold change
MKN45 cells [6]; [11]
  CDKN1A, Fold change vs GAPDH: 1.257 fold change and 1.116 fold change and 1.417 fold change
  IL-6, Fold change vs GAPDH: 1.298 fold change and 0.9165 fold change and 1.735 fold change
  MMP-1, Fold change vs GAPDH: 2.795 fold change and 2.229 fold change and 3.504 fold change
MKN45 cells [6]; MKN45, Fig. 4B, replicate values
  Fold change MAP2K3 vs GAPDH: 2.445 fold change and 2.003 fold change and 2.985 fold change
AGS cells [7]; AGS
  IC25 concentration: 15 µM
AGS cells [7]; dose 10 µM
  Cell Viability without NAC: 105.035
AGS cells [7]; dose 50 µM
  Cell Viability without NAC: 68.1853
AGS cells [7]; dose 75 µM
  Cell Viability without NAC: 30.4823
AGS cells [7]; AGS, NAC (+) 0.5 mM
  IC50: > 100 µM
AGS cells [7]; AGS, NAC (-)
  IC50: 50 µM and 51.5 µM
PANC1 cells [8]; dose 10 µM
  Cell Viability without NAC: 77.9259 and 88.6605 and 70.8131
PANC1 cells [8]; dose 25 µM
  Cell Viability without NAC: 47.4239 and 33.5177 and 35.073
PANC1 cells [8]; dose 50 µM
  Cell Viability without NAC: 47.9877 and 31.0793 and 43.6951
PANC1 cells [8]; PANC1, NAC (+) 0.5 mM
  IC50: > 100 µM
PANC1 cells [8]; PANC1, NAC (-)
  IC50: 20 µM and 18.8 µM
MKN45 cells [9]; dose 7.5 µM
  Cell Viability without NAC: 99.1588 and 99.2583 and 108.83
MKN45 cells [9]; dose 18.7 µM
  Cell Viability without NAC: 103.308 and 97.338 and 102.412
MKN45 cells [9]; dose 37.4 µM
  Cell Viability without NAC: 85.458 and 67.9963 and 88.4728
MKN45 cells [9]; dose 56.1 µM
  Cell Viability without NAC: 58.2655 and 42.2365 and 52.8031
MKN45 cells [9]; dose 74.8 µM
  Cell Viability without NAC: 41.9977 and 31.3714 and 39.5202
MKN45 cells [9]; MKN45, NAC (+) 0.5 mM
  IC50: > 100 µM
MKN45 cells [9]; MKN45, NAC (-)
  IC50: 56.8 ± 1.53 µM
